{
  "source": "paper PMC5227004",
  "about": "“Native ESI Mass Spectrometry Can Help to Avoid Wrong Interpretations from Isothermal Titration Calorimetry in Difficult Situations” (Journal of the American Society for Mass Spectrometry, 2016)",
  "key": {"[1]": {"biological_target": "T1, DNA-polymerase processivity factor (β-ring) from Escherichia coli (Escherichia coli, UniProt P0A988)", "T1 sequence (P0A988 whole entry, looked up)": "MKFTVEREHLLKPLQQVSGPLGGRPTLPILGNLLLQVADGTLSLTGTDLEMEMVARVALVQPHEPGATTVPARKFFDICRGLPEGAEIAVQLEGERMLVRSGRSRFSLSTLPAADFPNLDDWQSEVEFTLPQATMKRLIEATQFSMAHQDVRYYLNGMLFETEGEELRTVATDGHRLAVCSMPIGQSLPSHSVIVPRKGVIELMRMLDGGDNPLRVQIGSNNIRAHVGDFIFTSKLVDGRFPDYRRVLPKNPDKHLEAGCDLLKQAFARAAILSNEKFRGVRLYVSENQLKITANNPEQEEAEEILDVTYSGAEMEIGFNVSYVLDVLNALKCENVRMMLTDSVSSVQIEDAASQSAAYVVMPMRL", "assay": "Isothermal titration calorimetry (ITC) of peptide binding to the E. coli β-ring", "conditions": "βE.coli", "method": "We used an iTC200 from Microcal (now Microcal-Malvern, UK) operated in the high-gain mode. […] In short, the β -rings were initially in the cell at concentrations ranging from 20 to 60 μM and the peptides were in the syringe at concentrations ranging from 200 to 600 μM. The buffer was Hepes 10 mM, pH 7.4, supplemented with NaCl 150 mM and EDTA 3 mM. Experiments were performed at different temperatures from 15 to 34 °C.\nThe processing of the ITC data was first performed with the same model as the one used for ESI-MS (one specific binding site per monomer). […] The advantage of this still unusual method is of fitting several titration curves with a minimum set of free parameters. All K d values obtained by ITC were corrected for 22.5 °C, which was the incubation temperature used in ESI-MS experiments. This was performed by using the Van’t Hoff equation: ∂ ln K d/∂T = − ΔH/(RT ^2), where ΔH is the variation of enthalpy during complex formation and R = 8.314 J mol^−1 K^−1 the gas constant. Note that such a correction is quite justified for K d values obtained by ITC since the primary output from ITC is precisely the enthalpic term ΔH governing the evolution of K d with the temperature.\nThis competition model requires determining a fixed fraction f 1 of the protein monomers binding their ligand according to a dissociation constant K d1 and an enthalpy variation ΔH 1, and a fixed fraction f 2 = 1 − f 1 binding their ligand according to a dissociation constant K d2 and an enthalpy variation ΔH 2 (we consider K d2 < K d1)."}, "[2]": {"biological_target": "T1, DNA-polymerase processivity factor (β-ring) from Escherichia coli", "assay": "Native ESI-MS titration of peptide binding to the E. coli β-ring", "conditions": "βE.coli; processing taking into account separately the species R3"}, "[3]": {"conditions": "model with two competing modes of binding on the same site"}},
  "data": [
    {"smiles": "CC(=O)N[C@@H](CCC(N)=O)C(=O)N[C@@H](CC(C)C)C(=O)N[C@@H](CC(=O)O)C(=O)N[C@@H](CC(C)C)C(=O)N[C@@H](Cc1ccccc1)C(=O)O", "note": "[P6]", "values": [
      {"measurement": "ΔH1 (ITC), weaker binding mode", "setting": "[1]; [3]", "result": "≈ 1 kcal mol^−1"},
      {"measurement": "ΔH2 (ITC), stronger binding mode", "setting": "[1]; [3]", "result": "≈ –12 kcal mol^−1"},
      {"measurement": "ΔH (ITC), one binding mode", "setting": "[1]; simple model with one binding mode, at 25 °C", "result": "≈ –11.8 ± 0.2 kcal mol^−1"},
      {"measurement": "P, probability of GPD (ESI-MS, Equations 4)", "setting": "[2]", "result": 0.0528}
    ]}
  ]
}
